Results reported in patent US20240041042A1, “1-(PYRIDYL)-5-AZINYLPYRAZOLE DERIVATIVES, AND THEIR USE FOR CONTROL OF UNDESIRED PLANT GROWTH” (Bayer Aktiengesellschaft, priority 2020, published 2024).
Where two headings read alike, the source gives them in different places.

Experiments:
Assay type in all cases: in vivo
[1] = test system: Alopecurus myosuroides (ALOMY); assay: Pre-emergence herbicidal action against ALOMY; conditions: scored visually after about 3 weeks, 100% = plants have died
Method in brief: (§1)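 Seeds sown in pots and covered with soil; WP or EC formulations sprayed onto the soil surface at 600 l/ha water with 0.5% additive, at 320 g/ha or lower. Greenhouse growth for about 3 weeks, then visual scoring as % effect against untreated controls (100% = plants dead).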

[2] = test system: Amaranthus retroflexus (AMARE); assay: Pre-emergence herbicidal action against AMARE; conditions: visual scoring after about 3 weeks vs untreated controls
Method in brief: as §1

[3] = test system: Digitaria sanguinalis (DIGSA); assay: Pre-emergence herbicidal action against DIGSA
Method in brief: as §1

Lolium rigidum (LOLRI) [4] = assay: Pre-emergence herbicidal action against LOLRI
Method in brief: as §1

Viola tricolor (VIOTR) [5] = assay: Pre-emergence herbicidal action against VIOTR
Method in brief: as §1

Brassica napus (BRSNW) = conditions: 80 g/ha, crop plant compatibility, in comparison to untreated controls
Method in brief: (§2)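 Crop injury rated visually in percent against untreated plants roughly 3 weeks after treatment (0% no effect, 100% plants dead). Compounds, as WP or EC with 0.5% additive in 600 l/ha water, were applied to the covering soil right after sowing; greenhouse growth. Suffixes a, b, c denote different dosages.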

Zea mays (ZEAMX) [6] = conditions: pre-emergence, crop plant compatibility, in comparison to untreated controls
Method in brief: as §2

[7] = test system: Alopecurus myosuroides (ALOMY); assay: Post-emergence herbicidal action against ALOMY; conditions: visual rating about 3 weeks after treatment vs untreated controls (100% = plants have died, 0% = like control plants)
Method in brief: (§3)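 Values are percent visual activity (0% like control, 100% plants dead) after about 3 weeks in the greenhouse. Treatment: post-emergence spray at one-leaf stage, 600 l/ha spray volume, 0.5% additive, doses 320 g/ha or lower.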

[8] = test system: Amaranthus retroflexus (AMARE); assay: Post-emergence herbicidal action against AMARE
Method in brief: as §3

Avena fatua (AVEFA) [9] = assay: Post-emergence herbicidal action against AVEFA; conditions: visual rating about 3 weeks after treatment
Method in brief: as §3

[10] = test system: Pharbitis purpurea (PHBPU); assay: Post-emergence herbicidal action against PHBPU
Method in brief: as §3

[11] = test system: Polygonum convolvulus (POLCO); assay: Post-emergence herbicidal action against POLCO; conditions: dosage 320 g/ha
Method in brief: as §3

Viola tricolor (VIOTR) [12] = assay: Post-emergence herbicidal action against VIOTR
Method in brief: as §3

Oryza sativa (ORYSA) = conditions: crop plant compatibility
Method in brief: (§4)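 Visual rating (% effect vs. untreated plants; 100% = plant death) made about 3 weeks after treatment. Plants had been sprayed at one-leaf stage, 2–3 weeks post-sowing, with aqueous WP/EC preparations containing 0.5% additive, 600 l/ha water volume; a, b, c mark dose levels.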

[13] = test system: Echinochloa crus-galli (ECHCG); assay: Pre-emergence herbicidal action against ECHCG; conditions: dosage 320 g/ha
Method in brief: as §1

[14] = test system: Matricaria inodora (MATIN); assay: Pre-emergence herbicidal action against MATIN
Method in brief: as §1

[15] = test system: Pharbitis purpurea (PHBPU); assay: Pre-emergence herbicidal action against PHBPU; conditions: dosage 320 g/ha
Method in brief: as §1

Setaria viridis (SETVI) [16] = assay: Pre-emergence herbicidal action against SETVI; conditions: dosage 320 g/ha
Method in brief: as §1

[17] = test system: Digitaria sanguinalis (DIGSA); assay: Post-emergence herbicidal action against DIGSA; conditions: 320 g/ha, visual rating about 3 weeks after treatment
Method in brief: as §3

[18] = test system: Echinochloa crus-galli (ECHCG); assay: Post-emergence herbicidal action against ECHCG
Method in brief: as §3

Lolium rigidum (LOLRI) [19] = assay: Post-emergence herbicidal action against LOLRI
Method in brief: as §3

[20] = test system: Matricaria inodora (MATIN); assay: Post-emergence herbicidal action against MATIN; conditions: dosage 320 g/ha
Method in brief: as §3

Setaria viridis (SETVI) [21] = assay: Post-emergence herbicidal action against SETVI; conditions: dosage 320 g/ha
Method in brief: as §3

[22] = test system: Verconica persica (VERPE); assay: Post-emergence herbicidal action against VERPE
Method in brief: as §3

[23] = test system: Verconica persica (VERPE); assay: Pre-emergence herbicidal action against VERPE; conditions: dosage 320 g/ha
Method in brief: as §1

[24] = test system: Triticum aestivum (TRZAS); conditions: crop plant compatibility, 80 g/ha, effect vs untreated controls
Method in brief: as §4

Zea mays (ZEAMX) [25] = conditions: for Post-emergence action against ZEAMX in %: crop plant compatibility, 80 g/ha, effect vs untreated controls
Method in brief: as §4

Avena fatua (AVEFA) [26] = assay: Pre-emergence herbicidal action against AVEFA; conditions: visual scoring after about 3 weeks vs untreated controls
Method in brief: as §1

[27] = test system: Polygonum convolvulus (POLCO); assay: Pre-emergence herbicidal action against POLCO
Method in brief: as §1

[28] = 320 g/ha, visual rating about 3 weeks after treatment
[29] = 80 g/ha, effect in comparison to untreated controls

Pre-emergence action against BRSNW in % (Brassica napus (BRSNW))	Pre-emergence action against ZEAMX in % (Zea mays (ZEAMX) [6]; 80 g/ha)	Post-emergence action against ORYSA in % (Oryza sativa (ORYSA); [29])	SMILES	Pre-emergence action against ALOMY ([1]; 320 g/ha)	Pre-emergence action against AMARE in % ([2]; 320 g/ha)	Pre-emergence action against DIGSA in % ([3]; dosage 320 g/ha)	Pre-emergence action against LOLRI in % (Lolium rigidum (LOLRI) [4]; dosage 320 g/ha)	Pre-emergence action against VIOTR in % (Viola tricolor (VIOTR) [5]; 320 g/ha, Viola tricolor)	Post-emergence action against ALOMY in % ([7]; 320 g/ha)	Post-emergence action against AMARE in % [8, 28]	Post-emergence action against PHBPU in % ([10]; dosage 320 g/ha)	Post-emergence action against POLCO in % [11]	Post-emergence action against VIOTR in % (Viola tricolor (VIOTR) [12]; 320 g/ha)	Pre-emergence action against ECHCG in % [13]	Pre-emergence action against MATIN in % ([14]; dosage 320 g/ha)	Pre-emergence action against SETVI in % (Setaria viridis (SETVI) [16])	Post-emergence action against ALOMY in % ([7]; 80 g/ha)	Post-emergence action against ECHCG in % ([18]; dosage 80 g/ha)	Post-emergence action against ECHCG in % ([18]; dosage 320 g/ha)	Post-emergence action against LOLRI in % (Lolium rigidum (LOLRI) [19]; dosage 80 g/ha)	further results
0%	0%	0%	COC(=O)CCOC(=O)[C@@H](C)Oc1nn(-c2ccccn2)c(-c2ccc(Cl)nc2)c1Cl [Example I-245]	90%	80%	90%	90%	80%	80%	80%	90%	80%	80%	–	–	–	–	–	–	–	Post-emergence action against AVEFA in % (Avena fatua (AVEFA) [9]; 320 g/ha): 80%; Post-emergence action against PHBPU in % ([10]; dosage 80 g/ha): 80%
20%	10%	–	COC(=O)COc1nn(-c2nc(F)ccc2F)c(-c2ccc(F)nc2)c1C1CC1 [Example I-300]	–	90%	100%	90%	90%	90%	80%	80%	–	90%	90%	80%	90%	80%	80%	90%	90%	Pre-emergence action against DIGSA in % ([3]; 80 g/ha, visual scoring after about 3 weeks vs untreated controls): 90%; Pre-emergence action against LOLRI in % (Lolium rigidum (LOLRI) [4]; dosage 80 g/ha): 80%; Pre-emergence action against PHBPU in % [15]: 80%; Post-emergence action against DIGSA in % [17]: 80%; Post-emergence action against LOLRI in % (Lolium rigidum (LOLRI) [19]; dosage 320 g/ha): 90%; Post-emergence action against MATIN in % [20]: 80%; Post-emergence action against SETVI in % (Setaria viridis (SETVI) [21]): 80%; Post-emergence action against VERPE in % ([22]; 320 g/ha, VERPE): 80%; Post-emergence action against VIOTR in % (Viola tricolor (VIOTR) [12]; 80 g/ha): 80%
0%	0%	0%	COC(=O)CNC(=O)COc1nn(-c2ccccn2)c(-c2ccc(F)nc2)c1F [Example I-377]	80%	90%	–	–	–	–	90%	90%	80%	–	–	90%	90%	–	80%	90%	–	Pre-emergence action against AMARE in % ([2]; 80 g/ha): 80%; Pre-emergence action against MATIN in % ([14]; dosage 80 g/ha): 80%; Pre-emergence action against VERPE in % [23]: 80%; Pre-emergence action against ZEAMX in % (Zea mays (ZEAMX) [6]; 320 g/ha): 0%; Post-emergence action against AMARE in % ([8]; 80 g/ha, visual rating about 3 weeks after treatment vs untreated controls (100% = plants have died, 0% = like control plants)): 80%; Post-emergence action against SETVI in % (Setaria viridis (SETVI) [21]): 90%; Post-emergence action against VERPE in % ([22]; 320 g/ha, VERPE): 80%; Post-emergence action against TRZAS in % [24]: 0%; Post-emergence action against ZEAMX in % (Zea mays (ZEAMX) [25]): 0%
10%	10%	10%	C[C@@H](Oc1nn(-c2ncccc2Cl)c(-c2ccc(F)nc2)c1Br)C(=O)O [Example I-25]	90%	100%	–	100%	100%	–	–	–	–	–	90%	90%	100%	90%	–	–	80%	Pre-emergence action against ALOMY ([1]; 80 g/ha): 80%; Pre-emergence action against AMARE in % ([2]; 80 g/ha): 90%; Pre-emergence action against AVEFA in % (Avena fatua (AVEFA) [26]; 80 g/ha): 90%; Pre-emergence action against AVEFA in % (Avena fatua (AVEFA) [26]; 320 g/ha): 100%; Pre-emergence action against POLCO in % ([27]; dosage 80 g/ha): 80%; Pre-emergence action against POLCO in % ([27]; dosage 320 g/ha): 90%; Pre-emergence action against VERPE in % [23]: 90%; Pre-emergence action against VIOTR in % (Viola tricolor (VIOTR) [5]; dosage 80 g/ha): 100%; Post-emergence action against AVEFA in % (Avena fatua (AVEFA) [9]; 80 g/ha): 90%; Post-emergence action against VERPE in % ([22]; dosage 80 g/ha): 80%; Post-emergence action against ORYSA in % (Oryza sativa (ORYSA); 20 g/ha, effect vs untreated controls): 0%; Post-emergence action against ZEAMX in % (crop plant compatibility) (Zea mays (ZEAMX) [25]; 20 g/ha, ZEAMX, effect in comparison to untreated controls): 10%; Post-emergence action against ZEAMX in % (Zea mays (ZEAMX) [25]): 20%
